Source: patent US20050112573A1, “Method of detecting toxic substance” (priority 2001, published 2005)

System: yeast genes (level of expressed mRNA)
Test: DNA chip analysis of expressed mRNA of yeast genes after 2 h culture with a toxic chemical substance
Type: cell-based, Saccharomyces cerevisiae S288C
Settings: for The level of expressed mRNA in the presence of chemical substance/ (ratio to absence of chemical substance): stress protein genes, DNA chip
Experimental: Yeast (Saccharomyces cerevtisiae S288C (α SUC2mal mel gap2 CUP1)) were cultured at 25° C. on YPD medium (yeast extract 1%, polypepton 2%, glucose 2%). One of toxic chemical substances was added to the cell at logarithmic growth phase, and the cell was further cultured for two hours. Cell was cultured without any chemical substance in the same condition, and was used as control. Concentrations of the chemical substances were defined to inhibit the growth of the yeast but not lead to death.
After the completion of cultivation, the culture was centrifuged to collect the cells. To the cells, sodium acetate buffer (50 mM sodium acetate, 10 mM EDTA, 1% SDS) was added, and the mixture was shaken at 65° C. for five minutes, followed by returning to room temperature, and obtaining the supernatant, which procedure was repeated two times. To the supernatant, ½ amount of a solution of phenol/chloroform was added, and the mixture was centrifuged to give a supernatant, which was added with an equal amount of chloroform, and the mixture was centrifuged to give a supernatant. To the supernatant, an equal amount of isopropanol containing 0.3 M sodium acetate was added, and the mixture was allowed to stand at room temperature for 30 minutes, after which the mixture was centrifuged to give a sediment of the whole RNAs. Seventy % ethanol was added to the sediment, and the mixture was again centrifuged to give a sediment, which was then dried and dissolved in water. mRNA was isolated from the whole RNAs as followings. In view of the fact that a poly A chain is attached to the 3′ terminus of mRNA, a polynucleotide having a poly T structure which was immobilized on the surface of latex beads was used to trap the mRNA, and then the mRNA was washed and eluted with spine column (Oligotex-dT30<Super>mRNA Purification Kit, Takara). Reverse transcription of the mRNA was conducted with a reverse transcriptase (Super Script II Reverse Transcriptase; catalogue No. 18064-014, GibcoBRL) using fluorescence-labeled nucleotides to give cDNAs that were introduced with Cy3-dUTP or Cy5-dUTP during the reverse transcription.
The labeled cDNAs were dissolved in TE buffer (10 mM Tris-HCl/1 mM EDTA, pH8.0), and the solution was dropped on the DNA chip containing the whole genes of yeast (DNA Chip Research Inc. Japan) so that the cDNAs were hybridized on the DNA chip at 65° C. for over 12 hours. The fluoresces intensity of the DNA chip was read with a scanner, and the ratio relative to the fluorescence intensity resulting from the absence of chemical substance was estimated as the following, which is shown in Tables 1 to 9: [formula]
In the Tables, “Intensity” indicated in the rightmost column is a value of the level of expressed mRNA of each gene in control cells as divided by the average level of the expressions of the whole genes.

C=CC=O [(14), acrolein]
2.2: The level of expressed mRNA in the presence of chemical substance/The level of expressed mRNA in the absence of chemical substance (yeast gene YJR086W) | The level of expressed mRNA in the presence of chemical substance/The level of expressed mRNA in the absence of chemical substance (yeast gene YLR356W) | The level of expressed mRNA in the presence of chemical substance/The level of expressed mRNA in the absence of chemical substance (yeast gene YMR004W)
1.1: The level of expressed mRNA in the presence of chemical substance/The level of expressed mRNA in the absence of chemical substance (yeast gene YJL073W) | The level of expressed mRNA in the presence of chemical substance/ (in its absence), gene YJL216C (yeast gene YJL216C, ratio of DNA chip fluorescence intensity to that without chemical substance) | The level of expressed mRNA in the presence of chemical substance/ (in its absence), gene YKR034W (yeast gene YKR034W, ratio of DNA chip fluorescence intensity to that without chemical substance) | The level of expressed mRNA in the presence of chemical substance/The level of expressed mRNA in the absence of chemical substance (yeast gene YMR104C)
0.9: The level of expressed mRNA in the presence of chemical substance/The level of expressed mRNA in the absence of chemical substance (yeast gene YIL140W) | The level of expressed mRNA in the presence of chemical substance/ (in its absence), gene YJL167W (yeast gene YJL167W, ratio of DNA chip fluorescence intensity to that without chemical substance) | The level of expressed mRNA in the presence of chemical substance/ (in its absence), gene YLR375W (yeast gene YLR375W, ratio of DNA chip fluorescence intensity to that without chemical substance)
0.5: The level of expressed mRNA in the presence of chemical substance/ (ratio to absence of chemical substance) (yeast gene YJL158C) | The level of expressed mRNA in the presence of chemical substance/The level of expressed mRNA in the absence of chemical substance (yeast gene YKL096W) | The level of expressed mRNA in the presence of chemical substance/The level of expressed mRNA in the absence of chemical substance (yeast gene YLR391W) | The level of expressed mRNA in the presence of chemical substance/The level of expressed mRNA in the absence of chemical substance (yeast gene YMR219W)
1.3: The level of expressed mRNA in the presence of chemical substance/ (in its absence), gene YJL070C (yeast gene YJL070C, ratio of DNA chip fluorescence intensity to that without chemical substance) | The level of expressed mRNA in the presence of chemical substance/The level of expressed mRNA in the absence of chemical substance (yeast gene YKL041W) | The level of expressed mRNA in the presence of chemical substance/ (ratio to absence of chemical substance) (yeast gene YKR053C) | The level of expressed mRNA in the presence of chemical substance/ in its absence, gene YKR058W (yeast gene YKR058W, energy system protein genes, 2 h culture with the chemical, ratio to control without chemical) | The level of expressed mRNA in the presence of chemical substance/ (in its absence), gene YMR293C (yeast gene YMR293C, ratio of DNA chip fluorescence intensity to that without chemical substance)
1.0: The level of expressed mRNA in the presence of chemical substance/ (ratio to absence of chemical substance) (yeast gene YJR090C) | The level of expressed mRNA in the presence of chemical substance/ (in its absence), gene YKR009C (yeast gene YKR009C, ratio of DNA chip fluorescence intensity to that without chemical substance) | The level of expressed mRNA in the presence of chemical substance/ (in its absence), gene YLR006C (yeast gene YLR006C, ratio of DNA chip fluorescence intensity to that without chemical substance) | The level of expressed mRNA in the presence of chemical substance/ (ratio to absence of chemical substance) (yeast gene YLR006C) | The level of expressed mRNA in the presence of chemical substance/ in its absence, gene YMR267W (yeast gene YMR267W, energy system protein genes, 2 h culture with the chemical, ratio to control without chemical) | The level of expressed mRNA in the presence of chemical substance/ (ratio to absence), gene YMR267W (yeast gene YMR267W, mitochondria-located protein genes, 2 h culture with chemical) | The level of expressed mRNA in the presence of chemical substance/ in its absence, gene YMR267W (yeast gene YMR267W, ratio of DNA chip fluorescence intensity to that without chemical substance) | The level of expressed mRNA in the presence of chemical substance/The level of expressed mRNA in the absence of chemical substance (yeast gene YMR314W)
2.1: The level of expressed mRNA in the presence of chemical substance/ (ratio to absence), gene YJL096W (yeast gene YJL096W, mitochondria-located protein genes, 2 h culture with chemical)
2.8: The level of expressed mRNA in the presence of chemical substance/The level of expressed mRNA in the absence of chemical substance (yeast gene YLR178C) | The level of expressed mRNA in the presence of chemical substance/The level of expressed mRNA in the absence of chemical substance (yeast gene YMR094W)
2.5: The level of expressed mRNA in the presence of chemical substance/The level of expressed mRNA in the absence of chemical substance (yeast gene YLR250W)
1.8: The level of expressed mRNA in the presence of chemical substance/The level of expressed mRNA in the absence of chemical substance (yeast gene YJL089W)
0.7: The level of expressed mRNA in the presence of chemical substance/The level of expressed mRNA in the absence of chemical substance (yeast gene YJR004C) | The level of expressed mRNA in the presence of chemical substance/The level of expressed mRNA in the absence of chemical substance (yeast gene YLR136C) | The level of expressed mRNA in the presence of chemical substance/The level of expressed mRNA in the absence of chemical substance (yeast gene YLR429W)
1.4: The level of expressed mRNA in the presence of chemical substance/ (ratio to absence), gene YJL180C (yeast gene YJL180C, mitochondria-located protein genes, 2 h culture with chemical) | The level of expressed mRNA in the presence of chemical substance/The level of expressed mRNA in the absence of chemical substance (yeast gene YKL013C) | The level of expressed mRNA in the presence of chemical substance/ (in its absence), gene YLR351C (yeast gene YLR351C, ratio of DNA chip fluorescence intensity to that without chemical substance) | The level of expressed mRNA in the presence of chemical substance/ in its absence, gene YML129C (yeast gene YML129C, energy system protein genes, 2 h culture with the chemical, ratio to control without chemical) | The level of expressed mRNA in the presence of chemical substance/ (ratio to absence), gene YML129C (yeast gene YML129C, mitochondria-located protein genes, 2 h culture with chemical)
1.6: The level of expressed mRNA in the presence of chemical substance/ (ratio to absence), gene YMR023C (yeast gene YMR023C, mitochondria-located protein genes, 2 h culture with chemical) | The level of expressed mRNA in the presence of chemical substance/The level of expressed mRNA in the absence of chemical substance (yeast gene YMR226C)
0.6: The level of expressed mRNA in the presence of chemical substance/ (ratio to absence of chemical substance) (yeast gene YMR186W)
1.2: The level of expressed mRNA in the presence of chemical substance/The level of expressed mRNA in the absence of chemical substance (yeast gene YKL193C) | The level of expressed mRNA in the presence of chemical substance/ in its absence, gene YLR295C (yeast gene YLR295C, energy system protein genes, 2 h culture with the chemical, ratio to control without chemical) | The level of expressed mRNA in the presence of chemical substance/ (ratio to absence), gene YLR295C (yeast gene YLR295C, mitochondria-located protein genes, 2 h culture with chemical) | The level of expressed mRNA in the presence of chemical substance/The level of expressed mRNA in the absence of chemical substance (yeast gene YLR362W) | The level of expressed mRNA in the presence of chemical substance/The level of expressed mRNA in the absence of chemical substance (yeast gene YMR276W)
1.5: The level of expressed mRNA in the presence of chemical substance/The level of expressed mRNA in the absence of chemical substance (yeast gene YLR327C)
0.3: The level of expressed mRNA in the presence of chemical substance/ (ratio to absence of chemical substance) (yeast gene YKL164C)
0.8: The level of expressed mRNA in the presence of chemical substance/The level of expressed mRNA in the absence of chemical substance (yeast gene YKL008C) | The level of expressed mRNA in the presence of chemical substance/The level of expressed mRNA in the absence of chemical substance (yeast gene YKL039W) | The level of expressed mRNA in the presence of chemical substance/The level of expressed mRNA in the absence of chemical substance (yeast gene YKL165C) | The level of expressed mRNA in the presence of chemical substance/The level of expressed mRNA in the absence of chemical substance (yeast gene YLR120C) | The level of expressed mRNA in the presence of chemical substance/The level of expressed mRNA in the absence of chemical substance (yeast gene YMR275C) | The level of expressed mRNA in the presence of chemical substance/ (in its absence), gene YMR278W (yeast gene YMR278W, ratio of DNA chip fluorescence intensity to that without chemical substance)
2.6: The level of expressed mRNA in the presence of chemical substance/The level of expressed mRNA in the absence of chemical substance (yeast gene YJL116C)
